Experimental data: US20030203388A1, “Method for determining genotoxicity” (Pfizer Inc., priority 2002, published 2003)

How the values were obtained:
[1] = test system: GADD45β (X54149), GADD45 (U00937), AV138783, AI847051, AF055638, AI461837; assay: gene expression analysis (Affymetrix mouse microarray chip U74); assay type: cell-based; conditions: L5178Y cells treated four hours
Procedure: Mouse lymphoma cell line L5178Y (ATCC No. CRL 9518, ATCC) were cultivated in RPMI medium (Invitrogen Life Technologies, Inc., Carlsbad, Calif.) supplemented with 10% fetal bovine serum and antibiotics penicillin and streptomycin at 37° C. Cells from exponentially growing cultures were seeded at a concentration 3×10^5 cells/ml and incubated for 24 hours and maintained below 1×10^6 cells/ml. […] After the treatment, the cells were washed in PBS (Invitrogen Life Technologies, Inc., Carlsbad, Calif.). Half of the cells where then immediately frozen and stored at −80° C. prior to gene expression analysis, as described in Example 2 below. The other half was allowed to recover in a fresh growth medium for 20 hours. Cell viability was determined based on a cell count. Cell viability results appear in FIG. 1 and FIG. 2 as a ratio between treated versus vehicle control. […]
Gene expression was measured using Affymetrix GeneChip® technology (Affymetrix, Inc., Santa Clara, Calif.) using standard protocols available from Affymetrix (see, GeneChip® Expression Analysis, Technical Manual, Rev. 2 (2001), Affymetrix, Inc., available at http://www.affymetrix.com/pdf/expression_manual.pdf). […] The hybridized chips were scanned using a Hewlett Packard GeneArray™ Scanner, (Hewlett Packard Company, Palo Alto, Calif.) and the resulting data were evaluated using Affymetrix Microarray suite software (Affymetrix). […]

[2] = test system: L5178Y cells; assay: in vitro micronucleus assay; assay type: cell-based, mouse; conditions: L5178Y cells treated four hours, 20 hours recovery; sodium chloride at high concentrations
Procedure: Mouse lymphoma cell line L5178Y (ATCC No. CRL 9518, ATCC) were cultivated in RPMI medium (Invitrogen Life Technologies, Inc., Carlsbad, Calif.) supplemented with 10% fetal bovine serum and antibiotics penicillin and streptomycin at 37° C. Cells from exponentially growing cultures were seeded at a concentration 3×10^5 cells/ml and incubated for 24 hours and maintained below 1×10^6 cells/ml. […] After the treatment, the cells were washed in PBS (Invitrogen Life Technologies, Inc., Carlsbad, Calif.). […] The other half was allowed to recover in a fresh growth medium for 20 hours. Cell viability was determined based on a cell count. […] The cells were then harvested for use in the in vitro micronucleus assay of Example 3 below.
Treated cells prepared according to Example 1 were attached to glass slides by dropping them onto the glass slides using a pipette after hypotonic treatment with 75 mM KCl (Sigma-Aldrich Corp., St Louis, Mo.) and fixation with 3:1 (v/v) MeOH:acetic acid (JT Baker, Inc., Phillipsburg, N.J.). The cells were then stained using 31.25 μg/ml solution of acridine orange (Molecular Probes, Inc., Eugene, Oreg.).
Micronuclei were counted using a Axiokop 2 fluorescent microscopy (Carl Zeiss Microlmaging, Inc., Thornwood, N.Y.).

N.N.[Cl][Pt][Cl] [cisplatin]
expression of GADD45β (X54149) and GADD45 (U00937) [1]: increased expression

[Cl-].[Na+] [sodium chloride]
genotoxic stress, as demonstrated using a micronucleus assay [2]: show evidence of genotoxic stress
level of expression of these genes (GADD45β, GADD45, AV138783, AI847051, AF055638, AI461837) [1]: no effect
